Data published in patent publication US10583113B2, “Cromolyn compositions for treatment of pulmonary fibrosis” (Respivant Sciences, GmbH, priority 2016, dated 2020).

Key:
[1] = Pharmacokinetics of cromolyn sodium in plasma and lung after single intraperitoneal injection; format: in vivo, male BALB/c mice; details: single IP injection, 10 mg/kg and 100 mg/kg
Experimental: BALB/c male mice, weighing 22±2 g, were provided by BioLasco Taiwan. All animals were maintained in a well-controlled temperature (20-24° C.) and humidity (30%-70%) environment with 12 hours light/dark cycles. The mice were given free access to a standard lab diet [MFG (Oriental Yeast Co., Ltd., Japan)] and autoclaved tap water.
The solution was administered to the mice by IP injection at concentrations of 10 mg/kg and 100 mg/kg. The dosing volume for both dose strengths was 5 mL/kg.
The mice were sedated under general inhalant anesthesia (3% isoflurane) for blood collection by cardiac puncture. […]
The plasma samples were processed using acetonitrile (ACN) precipitation and analyzed by LC-MS/MS. […] The processed plasma samples were stored at −70° C. until receiving LC-MS/MS analysis, at which time peak areas were recorded, and the concentrations of the test substance in the unknown plasma samples were determined using the respective calibration curve. The reportable linear range of the assay was determined, along with the lower limit of quantitation (LLQ).
Each lung was homogenized in 1.5 mL cold phosphate-buffered saline (PBS) at pH 7.4 for 10 seconds on ice. The lung homogenate was centrifuged at 5,400×g for 15 minutes at 4° C., and the supernatant was subsequently processed using ACN precipitation and analyzed by LC-MS/MS. […]

[2] = available formulations of DSCG, not the compositions of the disclosure; cited from earlier work

Exposure of cromolyn sodium in plasma and lungs [1]: Significant exposure
SMILES: O=C([O-])c1cc(=O)c2c(OCC(O)COc3cccc4oc(C(=O)O)cc(=O)c34)cccc2o1.[Na+] [cromolyn sodium, disodium 5,5′-(2-hydroxypropane-1,3-diyl)bis(oxy)bis(4-oxo-4H-chromene-2-carboxylate)]
Bioavailability of the available formulations [2]: approximately 1%
